In PMC11247118 (CPT: Pharmacometrics & Systems Pharmacology, 2024):
Read-outs that look alike come from different tables or passages of the source.

Assays:
[1] = test system: Gram-positive bacteria / MRSA; conditions: cited from earlier work
[2] = Therapeutic drug monitoring of serum vancomycin concentrations; conditions: serum TDM samples, SD
[3] = cited from earlier work
Gram-positive bacteria = conditions: 29 of 180 cases with Gram-positive isolates detected
[4] = test system: Patient bacterial isolates (Gram-positive); experiment: MIC of vancomycin for patient bacterial isolates; assay type: cell-based; conditions: majority of clinical isolates of the two study institutions, broth microdilution
[5] = Population pharmacokinetic model; conditions: for CLp, typical value of apparent clearance / Vp, typical value of apparent volume of distribution: estimate (% standard error), SEM
[6] = cited from earlier work; remark: listed apart in the source
[7] = bootstrap of final model, 996/1000 runs successful

Structure (SMILES): CN[C@H](CC(C)C)C(=O)N[C@H]1C(=O)N[C@@H](CC(N)=O)C(=O)N[C@H]2C(=O)N[C@H]3C(=O)N[C@H](C(=O)N[C@H](C(=O)O)c4cc(O)cc(O)c4-c4cc3ccc4O)[C@H](O)c3ccc(c(Cl)c3)Oc3cc2cc(c3O[C@@H]2O[C@H](CO)[C@@H](O)[C@H](O)[C@H]2O[C@H]2C[C@](C)(N)[C@H](O)[C@H](C)O2)Oc2ccc(cc2Cl)[C@H]1O [vancomycin]
- microbiological eradication rate ([1]; multicenter study, Chinese children, 37.79 ± 11.31 mg/kg/day): > 80%
- overall clinical effective rate ([1]; pediatric patients with median AUC/MIC between 200 and 300, ref 40 (Shen et al.)): 92.6%
- Vancomycin concentration, mean ± standard deviation ([2]; model validation dataset N = 67, 76 concentrations): 6.89 ± 2.63 mg/L
- Vancomycin concentration, mean ± standard deviation ([2]; model-building dataset N1 = 210, 272 concentrations): 8.7 ± 6.0 mg/L
- Vancomycin concentration, mean ± standard deviation ([2]; model-building dataset N2 = 176, 249 concentrations): 8.27 ± 5.85 mg/L
- Vancomycin concentration, mean ± standard deviation ([2]; model-building dataset Total = 386, 521 concentrations): 8.52 ± 5.93 mg/L
- fraction eliminated by the renal system and excreted in the urine as a prototype ([3]; after intravenous administration): approximately 90%
- inter-individual variability (IIV) of clearance (CL) ([3]; reported to reach as high as): ≤ 99.2%
- known range of weight-adjusted CL in pediatric patients ([3]; summarized in a systematic review): 0.0155 to 0.255 L/h/kg
- treatment failure rate (Gram-positive bacteria): 16%
- MIC values of clinical isolates [4]: ≤ 1 mg/L
- CLage>2, bootstrap median [5, 7]: 2.56 L/h
- CLage≤2, bootstrap median [5, 7]: 1.97 L/h
- Vd, bootstrap median [5, 7]: 22.2 L
- CLp, typical value of apparent clearance ([5]; candidate Model I, 3/4 allometric model): 2.09 (4.3) L/h
- Vp, typical value of apparent volume of distribution ([5]; candidate Model I): 40.9 (14.6) L
- CLp, typical value of apparent clearance ([5]; candidate Model II, allometric model): 2.10 (4.0) L/h
- Vp, typical value of apparent volume of distribution ([5]; candidate Model II): 23.8 (28.2) L
- Vp, typical value of apparent volume of distribution ([5]; candidate Model III): 40.8 (14.5) L
- Vp, typical value of apparent volume of distribution ([5]; candidate Model IV): 23.0 (25.5) L
- CLp, typical value of apparent clearance ([5]; candidate Model V, BW-dependent exponent model): 2.30 (5.0) L/h
- Vp, typical value of apparent volume of distribution ([5]; candidate Model V): 23.3 (27.1) L
- CLp, typical value of apparent clearance ([5]; candidate Model VI, age-dependent exponent model): 2.42 (5.5) L/h
- Vp, typical value of apparent volume of distribution ([5]; candidate Model VI): 22.7 (25.5) L
- weight-adjusted typical CL ([5]; final PPK model, age >2 years old): 0.216 L/h/kg
- CLage>2, final model estimate ([5]; final PPK model, age >2 years old, typical value at BW 12 kg and CLcr 75 mL/min): 2.59 L/h
- weight-adjusted typical CL ([5]; final PPK model, age ≤2 years old): 0.165 L/h/kg
- CLage≤2, final model estimate ([5]; final PPK model, age ≤2 years old, typical value at BW 12 kg and CLcr 75 mL/min): 1.98 L/h
- Vd, final model estimate ([5]; final PPK model, typical value at BW 12 kg): 22.4 L
- AUC0-24 threshold for predicting vancomycin-associated nephrotoxicity ([6]; Chinese children): < 537 mg·h/L
- AUC0-24 threshold for predicting vancomycin-associated nephrotoxicity ([6]; Chinese neonates): < 480 mg·h/L
